DBAASP
In brackets after ≈: the same amount, converted by molar mass.

Experiments:
Test in all cases: ≥ marks a high value that may be exact or a test limit, other limits are often not marked, values filed in µg/mL are converted to µM
[1] = test system: Staphylococcus aureus ATCC 43300
[2] = test system: Pseudomonas aeruginosa ATCC 27853
[3] = test system: Escherichia coli NCTC 10418
[4] = test system: Staphylococcus aureus NCTC 10788
[5] = test system: Candida albicans NCYC 1467
[6] = test system: Staphylococcus aureus NCTC 12493
[7] = test system: Escherichia coli JW0013

Compound: CSCC[C@H](NC(=O)[C@H](CC(=O)O)NC(=O)[C@@H](NC(=O)[C@@H](NC(=O)[C@H](C)NC(=O)[C@H](CC(N)=O)NC(=O)[C@H](CC(C)C)NC(=O)[C@H](C)NC(=O)[C@H](C)NC(=O)[C@H](CCCCN)NC(=O)CNC(=O)[C@H](C)NC(=O)[C@H](C)NC(=O)[C@H](CCCCN)NC(=O)CNC(=O)[C@@H](NC(=O)[C@H](CC(N)=O)NC(=O)[C@H](CCCCN)NC(=O)[C@H](Cc1ccccc1)NC(=O)[C@H](CC(C)C)NC(=O)[C@H](CO)NC(=O)[C@H](CCCCN)NC(=O)[C@H](Cc1c[nH]c2ccccc12)NC(=O)[C@H](CC(C)C)NC(=O)CN)C(C)C)C(C)C)[C@@H](C)O)C(=O)N[C@H](C(=O)N[C@@H](CC(N)=O)C(=O)N[C@@H](CCC(N)=O)C(N)=O)C(C)C [GLWKSLFKNVGKAAGKAALNAVTDMVNQ]
- MIC [1]: 10.9 µM (≈ 32 µg/mL)
- MIC [2]: 21.8 µM (≈ 64 µg/mL)
- MIC [3]: 5.46 µM (≈ 16 µg/mL)
- MIC [4]: 5.46 µM (≈ 16 µg/mL)
- MIC [5]: 10.9 µM (≈ 32 µg/mL)
- MIC [6]: 21.8 µM (≈ 64 µg/mL)

Compound: CC[C@H](C)[C@H](NC(=O)[C@H](CCCN=C(N)N)NC(=O)[C@@H](N)CCCCN)C(=O)N[C@@H](CCCN=C(N)N)C(=O)N1CCC[C@H]1C(=O)N[C@@H](CCCN=C(N)N)C(=O)N1CCC[C@H]1C(=O)N1CCC[C@H]1C(=O)N[C@@H](CCCN=C(N)N)C(=O)N[C@@H](CC(C)C)C(=O)N1CCC[C@H]1C(=O)N[C@@H](CCCN=C(N)N)C(=O)N1CCC[C@H]1C(=O)N[C@@H](CCCN=C(N)N)C(=O)N1CCC[C@H]1C(=O)N[C@@H](CCCN=C(N)N)C(=O)O [KRIRPRPPRLPRPRPR]
- MIC [7]: 0.3 µM (≈ 0.615 µg/mL)

Compound: CC[C@H](C)[C@H](NC(=O)[C@@H]1CCCN1C(=O)[C@H](CCCCN)NC(=O)[C@@H]1CCCN1C(=O)[C@@H]1CCCN1C(=O)[C@@H](NC(=O)[C@@H]1CCCN1C(=O)[C@H](CCCN=C(N)N)NC(=O)[C@@H]1CCCN1C(=O)[C@H](CC(C)C)NC(=O)[C@H](Cc1ccc(O)cc1)NC(=O)[C@H](CO)NC(=O)CNC(=O)[C@H](CCCCN)NC(=O)[C@H](CC(=O)O)NC(=O)[C@@H](N)C(C)C)[C@@H](C)O)C(=O)N[C@@H](Cc1ccc(O)cc1)C(=O)N[C@@H](CC(N)=O)C(=O)N[C@@H](CCCN=C(N)N)C(=O)N[C@@H](CC(N)=O)C(=O)O [VDKGSYLPRPTPPKPIYNRN]
- MIC [7]: 0.3 µM (≈ 0.694 µg/mL)

Compound: CC[C@H](C)[C@H](NC(=O)[C@@H]1CCCN1C(=O)[C@H](CCCN=C(N)N)NC(=O)[C@@H]1CCCN1C(=O)[C@@H]1CCCN1C(=O)[C@@H](NC(=O)[C@@H]1CCCN1C(=O)[C@H](CCCN=C(N)N)NC(=O)[C@@H]1CCCN1C(=O)[C@H](CCCN=C(N)N)NC(=O)[C@H](Cc1ccc(O)cc1)NC(=O)[C@H](CO)NC(=O)CNC(=O)[C@H](CCCCN)NC(=O)[C@H](CC(=O)O)NC(=O)[C@@H](N)C(C)C)[C@@H](C)O)C(=O)N[C@@H](Cc1ccc(O)cc1)C(=O)N[C@@H](CC(N)=O)C(=O)N[C@@H](CCCN=C(N)N)C(=O)N[C@@H](CC(N)=O)C(=O)O [VDKGSYRPRPTPPRPIYNRN]
- MIC [7]: 0.3 µM (≈ 0.715 µg/mL)

Compound: CC[C@H](C)[C@H](NC(=O)[C@H](CCCN=C(N)N)NC(=O)[C@H](CCCN=C(N)N)NC(=O)[C@@H]1CCCN1C(=O)[C@@H]1CCCN1C(=O)[C@H](CCCN=C(N)N)NC(=O)[C@@H]1CCCN1C(=O)[C@H](CCSC)NC(=O)[C@@H]1CCCN1C(=O)[C@H](CC(C)C)NC(=O)[C@H](Cc1ccc(O)cc1)NC(=O)[C@@H]1CCCN1C(=O)[C@@H]1CCCN1C(=O)[C@H](CCCCN)NC(=O)[C@H](CC(=O)O)NC(=O)[C@@H](N)C(C)C)C(=O)N[C@@H](Cc1ccc(O)cc1)C(=O)N[C@@H](CC(N)=O)C(=O)N[C@@H](CCCN=C(N)N)C(N)=O [VDKPPYLPMPRPPRRIYNR]
- MIC [7]: 2.03 µM (≈ 4.8 µg/mL)

Compound: CC[C@H](C)[C@H](NC(=O)[C@H](CCCN=C(N)N)NC(=O)[C@H](CCCN=C(N)N)NC(=O)[C@@H]1CCCN1C(=O)[C@@H]1CCCN1C(=O)[C@H](CCCN=C(N)N)NC(=O)[C@H](CCCN=C(N)N)NC(=O)[C@H](CCCN=C(N)N)NC(=O)[C@@H]1CCCN1C(=O)[C@H](CC(C)C)NC(=O)[C@H](CCCN=C(N)N)NC(=O)[C@@H]1CCCN1C(=O)[C@H](CCCN=C(N)N)NC(=O)[C@H](CCCCN)NC(=O)[C@H](CC(=O)O)NC(=O)[C@@H](N)C(C)C)C(=O)N[C@@H](Cc1ccc(O)cc1)C(=O)N[C@@H](CC(N)=O)C(=O)N[C@@H](CCCN=C(N)N)C(N)=O [VDKRPRLPRRRPPRRIYNR]
- MIC [7]: 0.959 µM (≈ 2.4 µg/mL)
